Legend:
Type in all cases: in vivo
[1] = system: umbrella sedge (Cyperus difformis); experiment: Test B flooded paddy test; details: for Plant response rating, Flood, Sedge, Umbrella: 250 g ai/ha, flooded paddy test, visual rating on 0 to 100 scale (0 no effect, 100 complete control) after 13 to 15 days; for Plant response rating, Sedge, Umbrella: Flood (flooded paddy test), 13 to 15 days
Procedure, shortened: (§1)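 Seedlings reaching 2 leaves are flooded 3 cm deep; test material is delivered to that water, which stays at the same depth. Plants remain in a greenhouse 13–15 days and are then scored by eye versus controls from 0 to 100.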

[2] = system: rice (Oryza sativa); experiment: Test B flooded paddy test; details: for Plant response rating, Flood, Rice: 250 g ai/ha, flooded paddy test, visual rating on 0 to 100 scale (0 no effect, 100 complete control) after 13 to 15 days; for Plant response rating, Rice: Flood (flooded paddy test), 13 to 15 days
Procedure, shortened: as §1

[3] = system: ducksalad (Heteranthera limosa); experiment: Test B flooded paddy test; details: for Plant response rating, Flood, Ducksalad: 250 g ai/ha, flooded paddy test, visual rating on 0 to 100 scale (0 no effect, 100 complete control) after 13 to 15 days; for Plant response rating, Ducksalad: Flood (flooded paddy test), 13 to 15 days
Procedure, shortened: as §1

[4] = system: barnyardgrass (Echinochloa crus-galli); experiment: Test B flooded paddy test; details: for Plant response rating, Flood, Barnyardgrass: 250 g ai/ha, flooded paddy test, visual rating on 0 to 100 scale (0 no effect, 100 complete control) after 13 to 15 days; for Plant response rating, Barnyardgrass: Flood (flooded paddy test), 13 to 15 days
Procedure, shortened: as §1

[5] = system: morningglory (Ipomoea coccinea); experiment: Test B pre-/postemergence plant response
Text: (§2) Seeds of plant species selected from blackgrass (Alopecurus myosuroides), downy bromegrass (Bromus tectorum), green foxtail (Setaria viridis), Italian ryegrass (Lolium multiflorum), wheat (Triticum aestivum), wild oat (Avena fatua), deadnettle (henbit deadnettle, Lamium amplexicaule), galium (catchweed bedstraw, Galium aparine), bermudagrass (Cynodon dactylon), Surinam grass (Brachiaria decumbens), cocklebur (Xanthium strumarium), corn (Zea mays), large crabgrass (Digitaria sanguinalis), woolly cupgrass (Eriochloa villosa), giant foxtail (Setaria faberii), goosegrass (Eleusine indica), johnsongrass (Sorghum halepense), kochia (Kochia scoparia), lambsquarters (Chenopodium album), morningglory (Ipomoea coccinea), nightshade (eastern black nightshade, Solanum ptycanthum), yellow nutsedge (Cyperus esculentus), pigweed (Amaranthus retroflexus), ragweed (common ragweed, Ambrosia elatior), Russian thistle (Salsola kali), soybean (Glycine max), sunflower (common oilseed sunflower, Helianthus annuus) and velvetleaf (Abutilon theophrasti) were planted into a blend of loam soil and sand and treated preemergence with test compounds formulated in a non-phytotoxic solvent mixture which included a surfactant.
(§3) At the same time, plants selected from these crop and weed species and also winter barley (Hordeum vulgare), canarygrass (Phalaris minor), chickweed (Stellaria media) and windgrass (Apera spica-venti) were planted in pots containing Redi-Earth® planting medium (Scotts Company, 14111 Scottslawn Road, Marysville, Ohio 43041) comprising spaghnum peat moss, vermiculite, wetting agent and starter nutrients and treated with postemergence applications of some of the test chemicals formulated in the same manner. Plants ranged in height from 2 to 18 cm (1- to 4-leaf stage) for postemergence treatments.
(§4) Treated plants and controls were maintained in a greenhouse for 13 to 15 days, after which time all treated plants were visually evaluated and compared to controls. Plant response ratings, summarized in Table B, are based on a scale of 0 to 100 where 0 is no effect and 100 is complete control. A dash (-) response means no test result.

[6] = system: corn (Zea mays); experiment: Test B pre-/postemergence plant response
Text: as §2, §3, §4

[7] = system: ragweed (common ragweed, Ambrosia elatior); experiment: Test B pre-/postemergence plant response
Text: as §2, §3, §4

[8] = system: Italian ryegrass (Lolium multiflorum); experiment: Test B pre-/postemergence plant response
Text: as §2, §3, §4

[9] = system: soybean (Glycine max); experiment: Test B pre-/postemergence plant response
Text: as §2, §3, §4

[10] = system: Surinam grass (Brachiaria decumbens); experiment: Test B pre-/postemergence plant response
Text: as §2, §3, §4

[11] = system: bermudagrass (Cynodon dactylon); experiment: Test B pre-/postemergence plant response
Text: as §2, §3, §4

[12] = system: cocklebur (Xanthium strumarium); experiment: Test B pre-/postemergence plant response
Text: as §2, §3, §4

[13] = system: blackgrass (Alopecurus myosuroides); experiment: Test B pre-/postemergence plant response
Text: as §2, §3, §4

[14] = 62 g ai/ha, scale 0 to 100, 0 is no effect, 100 is complete control
[15] = 250 g ai/ha, Preemergence, 0 to 100 scale
[16] = Postemergence, 31 g ai/ha, scale 0 to 100 (0 no effect, 100 complete control)
[17] = Postemergence, 62 g ai/ha, scale 0 (no effect) to 100 (complete control), 13 to 15 days
[18] = Postemergence, 125 g ai/ha, visual rating after 13 to 15 days, scale 0 (no effect) to 100 (complete control)
[19] = Postemergence, 250 g ai/ha, scale 0 to 100
[20] = Preemergence, 31 g ai/ha, scale 0 to 100 (0 no effect, 100 complete control)
[21] = Preemergence, 62 g ai/ha, scale 0 to 100 (0 no effect, 100 complete control)
[22] = Preemergence, 125 g ai/ha, 0 to 100 scale
[23] = 31 g ai/ha, scale of 0 to 100 where 0 is no effect and 100 is complete control
[24] = 125 g ai/ha, scale 0 to 100, 0 is no effect, 100 is complete control

Compound: O=C1CCCC(O)=C1C(=O)c1cnc(-c2ccccc2)n(-c2ccccc2F)c1=O [Compound 26]
- Plant response rating, Flood, Sedge, Umbrella [1]: 85
- Plant response rating, Sedge, Umbrella [1, 14]: 75
- Plant response rating, Flood, Rice [2]: 0
- Plant response rating, Rice [2, 14]: 0
- Plant response rating, Flood, Ducksalad [3]: 85
- Plant response rating, Ducksalad [3, 14]: 75
- Plant response rating, Flood, Barnyardgrass [4]: 0
- Plant response rating, Barnyardgrass [4, 14]: 0
- Plant response rating, Morningglory [5, 15]: 100
- Plant response rating, Morningglory [5, 16]: 50
- Plant response rating, Morningglory [5, 17]: 50
- Plant response rating, Morningglory [5, 18]: 75
- Morningglory plant response rating [5, 19]: 75
- Plant response rating, Morningglory [5, 20]: 100
- Plant response rating, Morningglory [5, 21]: 100
- Morningglory plant response rating [5, 22]: 100
- Plant response rating, Corn [6, 15]: 0
- Plant response rating, Corn [6, 16]: 35
- Plant response rating, Corn [6, 17]: 35
- Plant response rating, Corn [6, 18]: 40
- Corn plant response rating [6, 19]: 50
- Plant response rating, Corn [6, 20]: 0
- Plant response rating, Corn [6, 21]: 0
- Corn plant response rating [6, 22]: 0
- Plant response rating, Ragweed [7, 15]: 100
- Plant response rating, Ragweed [7, 16]: 70
- Plant response rating, Ragweed [7, 17]: 85
- Plant response rating, Ragweed [7, 18]: 98
- Ragweed plant response rating [7, 19]: 100
- Plant response rating, Ragweed [7, 20]: 65
- Plant response rating, Ragweed [7, 21]: 85
- Ragweed plant response rating [7, 22]: 95
- Plant response rating, Ryegrass, Italian [8, 15]: 0
- Plant response rating, Ryegrass, Italian [8, 16]: 0
- Plant response rating, Ryegrass, Italian [8, 17]: 0
- Plant response rating, Ryegrass, Italian [8, 18]: 10
- Ryegrass, Italian plant response rating [8, 19]: 45
- Plant response rating, Ryegrass, Italian [8, 20]: 0
- Plant response rating, Ryegrass, Italian [8, 21]: 0
- Ryegrass, Italian plant response rating [8, 22]: 0
- Plant response rating, Soybean [9, 15]: 90
- Plant response rating, Soybean [9, 16]: 95
- Plant response rating, Soybean [9, 17]: 95
- Plant response rating, Soybean [9, 18]: 95
- Soybean plant response rating [9, 19]: 98
- Plant response rating, Soybean [9, 20]: 50
- Plant response rating, Soybean [9, 21]: 60
- Soybean plant response rating [9, 22]: 80
- Plant response rating, Surinam Grass [10, 15]: 90
- Plant response rating, Surinam Grass [10, 16]: 30
- Plant response rating, Surinam Grass [10, 17]: 40
- Plant response rating, Surinam Grass [10, 18]: 60
- Surinam Grass plant response rating [10, 19]: 60
- Plant response rating, Surinam Grass [10, 20]: 0
- Plant response rating, Surinam Grass [10, 21]: 5
- Surinam Grass plant response rating [10, 22]: 90
- Plant response rating, Bermudagrass [11, 15]: 100
- Plant response rating, Bermudagrass [11, 16]: 40
- Plant response rating, Bermudagrass [11, 17]: 50
- Plant response rating, Bermudagrass ([11]; Postemergence, 125 g ai/ha, scale 0 to 100 (0 no effect, 100 complete control), 13 to 15 days): 60
- Bermudagrass plant response rating [11, 19]: 75
- Plant response rating, Bermudagrass [11, 20]: 5
- Plant response rating, Bermudagrass [11, 21]: 70
- Bermudagrass plant response rating [11, 22]: 98
- Plant response rating, Cocklebur [12, 15]: 98
- Plant response rating, Cocklebur [12, 16]: 80
- Plant response rating, Cocklebur [12, 17]: 80
- Plant response rating, Cocklebur [12, 18]: 95
- Cocklebur plant response rating [12, 19]: 100
- Plant response rating, Cocklebur [12, 20]: 10
- Plant response rating, Cocklebur [12, 21]: 40
- Cocklebur plant response rating [12, 22]: 85
- Plant response rating, Blackgrass [13, 15]: 10
- Plant response rating, Blackgrass [13, 16]: 0
- Plant response rating, Blackgrass [13, 17]: 0
- Plant response rating, Blackgrass [13, 18]: 10
- Blackgrass plant response rating [13, 19]: 40
- Plant response rating, Blackgrass [13, 20]: 0
- Plant response rating, Blackgrass [13, 21]: 0
- Blackgrass plant response rating [13, 22]: 0

Compound: Cc1cc(C)cc(-n2c(-c3ccccc3)ncc(C(=O)C3=C(O)CCCC3=O)c2=O)c1 [Compound 33]
- Plant response rating, Flood, Sedge, Umbrella [1]: 85
- Plant response rating, Sedge, Umbrella [1, 23]: 20
- Plant response rating, Sedge, Umbrella [1, 14]: 30
- Plant response rating, Sedge, Umbrella [1, 24]: 50
- Plant response rating, Flood, Rice [2]: 50
- Plant response rating, Rice [2, 23]: 0
- Plant response rating, Rice [2, 14]: 0
- Plant response rating, Rice [2, 24]: 20
- Plant response rating, Flood, Ducksalad [3]: 95
- Plant response rating, Ducksalad [3, 23]: 60
- Plant response rating, Ducksalad [3, 14]: 75
- Plant response rating, Ducksalad [3, 24]: 80
- Plant response rating, Flood, Barnyardgrass [4]: 40
- Plant response rating, Barnyardgrass [4, 23]: 0
- Plant response rating, Barnyardgrass [4, 14]: 20
- Plant response rating, Barnyardgrass [4, 24]: 30
- Plant response rating, Morningglory [5, 15]: 90
- Plant response rating, Morningglory [5, 17]: 60
- Plant response rating, Morningglory [5, 18]: 80
- Plant response rating, Morningglory [5, 20]: 0
- Plant response rating, Morningglory [5, 21]: 15
- Morningglory plant response rating [5, 22]: 70
- Plant response rating, Corn [6, 15]: 0
- Plant response rating, Corn [6, 16]: 0
- Plant response rating, Corn [6, 17]: 10
- Plant response rating, Corn [6, 18]: 10
- Corn plant response rating [6, 19]: 15
- Plant response rating, Corn [6, 20]: 0
- Plant response rating, Corn [6, 21]: 0
- Corn plant response rating [6, 22]: 0
- Plant response rating, Ragweed [7, 15]: 100
- Plant response rating, Ragweed [7, 17]: 95
- Plant response rating, Ragweed [7, 18]: 98
- Plant response rating, Ragweed [7, 20]: 80
- Plant response rating, Ragweed [7, 21]: 85
- Ragweed plant response rating [7, 22]: 100
- Plant response rating, Ryegrass, Italian [8, 15]: 5
- Plant response rating, Ryegrass, Italian [8, 17]: 10
- Plant response rating, Ryegrass, Italian [8, 18]: 40
- Plant response rating, Ryegrass, Italian [8, 20]: 0
- Plant response rating, Ryegrass, Italian [8, 21]: 0
- Ryegrass, Italian plant response rating [8, 22]: 5
- Plant response rating, Soybean [9, 15]: 75
- Plant response rating, Soybean [9, 17]: 98
- Plant response rating, Soybean [9, 18]: 98
- Plant response rating, Soybean [9, 20]: 60
- Plant response rating, Soybean [9, 21]: 60
- Soybean plant response rating [9, 22]: 65
- Plant response rating, Surinam Grass [10, 15]: 100
- Plant response rating, Surinam Grass [10, 17]: 65
- Plant response rating, Surinam Grass [10, 18]: 75
- Plant response rating, Surinam Grass [10, 20]: 0
- Plant response rating, Surinam Grass [10, 21]: 65
- Surinam Grass plant response rating [10, 22]: 95
- Plant response rating, Bermudagrass [11, 15]: 100
- Plant response rating, Bermudagrass [11, 16]: 75
- Plant response rating, Bermudagrass [11, 17]: 95
- Plant response rating, Bermudagrass [11, 18]: 98
- Bermudagrass plant response rating [11, 19]: 98
- Plant response rating, Bermudagrass [11, 20]: 98
- Plant response rating, Bermudagrass [11, 21]: 100
- Bermudagrass plant response rating [11, 22]: 100
- Plant response rating, Cocklebur [12, 15]: 90
- Plant response rating, Cocklebur [12, 16]: 85
- Plant response rating, Cocklebur [12, 17]: 90
- Plant response rating, Cocklebur [12, 18]: 95
- Cocklebur plant response rating [12, 19]: 95
- Plant response rating, Cocklebur [12, 20]: 25
- Plant response rating, Cocklebur [12, 21]: 80
- Cocklebur plant response rating [12, 22]: 85
- Plant response rating, Blackgrass [13, 15]: 30
- Plant response rating, Blackgrass [13, 16]: 10
- Plant response rating, Blackgrass [13, 17]: 15
- Plant response rating, Blackgrass [13, 18]: 30
- Blackgrass plant response rating [13, 19]: 30
- Plant response rating, Blackgrass [13, 20]: 0
- Plant response rating, Blackgrass [13, 21]: 0
- Blackgrass plant response rating [13, 22]: 10

— patent publication US8952024B2, “Herbicidal pyrimidone derivatives” (E I du Pont de Nemours and Company, priority 2009, dated 2015)
